Assay results published in patent publication US9815796B2 (Merck Sharp & Dohme Corp., priority 2013, dated 2017).

Target: human PDE2A1 (Homo sapiens (Human), UniProt O00408)
Test: IMAP FP PDE selectivity panel, human PDE2A1
Type: biochemical
Conditions: Human PDE2, Lab B; read-out: Human PDE2 Ki (nM) - Lab B
How it was run: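 IMAP FP format: substrate 50 nM FAM-cAMP plus 1000 nM cGMP, enzyme (insect-cell GST-tagged human PDE2A1) at ~20% conversion, 60 min reaction at room temperature. Apparent inhibition constants calculated from parallel/perpendicular fluorescence with KM 10,000 nM.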

Chain of human PDE2A1 (O00408 other isoform, or with tags, fused parts or gaps): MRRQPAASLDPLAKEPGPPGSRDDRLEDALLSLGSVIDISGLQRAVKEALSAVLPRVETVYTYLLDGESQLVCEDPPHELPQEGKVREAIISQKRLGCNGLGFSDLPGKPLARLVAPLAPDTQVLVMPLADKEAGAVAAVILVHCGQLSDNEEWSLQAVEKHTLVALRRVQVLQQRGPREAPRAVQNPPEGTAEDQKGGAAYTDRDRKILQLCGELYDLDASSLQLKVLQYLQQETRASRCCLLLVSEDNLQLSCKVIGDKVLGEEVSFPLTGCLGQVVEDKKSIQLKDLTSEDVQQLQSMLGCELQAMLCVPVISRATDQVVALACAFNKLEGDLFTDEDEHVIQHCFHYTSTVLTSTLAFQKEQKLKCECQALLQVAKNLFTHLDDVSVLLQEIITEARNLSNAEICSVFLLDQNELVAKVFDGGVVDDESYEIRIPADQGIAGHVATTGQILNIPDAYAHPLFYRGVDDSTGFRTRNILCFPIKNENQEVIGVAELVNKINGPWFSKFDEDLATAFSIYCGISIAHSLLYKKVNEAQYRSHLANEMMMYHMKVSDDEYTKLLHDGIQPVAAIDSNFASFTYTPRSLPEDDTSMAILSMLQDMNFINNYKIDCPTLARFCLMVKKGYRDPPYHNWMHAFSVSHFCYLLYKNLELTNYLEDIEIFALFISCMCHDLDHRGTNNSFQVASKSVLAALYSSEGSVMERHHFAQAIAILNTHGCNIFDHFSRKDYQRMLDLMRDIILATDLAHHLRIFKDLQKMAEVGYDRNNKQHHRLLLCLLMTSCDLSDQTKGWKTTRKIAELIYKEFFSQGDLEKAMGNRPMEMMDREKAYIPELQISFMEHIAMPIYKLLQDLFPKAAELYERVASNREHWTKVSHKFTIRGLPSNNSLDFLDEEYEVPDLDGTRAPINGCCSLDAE

Row | SMILES | Ki [nM]
1 | O=C(N[C@@H](c1ccc2c(c1)OC(F)(F)O2)C1CC1)c1cc(=O)[nH]c(-c2ncccn2)n1 [Example 591, N-[(R)-cyclopropyl(2,2-difluoro-1,3-benzodioxol-5-yl)methyl]-6-oxo-1,6-dihydro-2,2′-bipyrimidine-4-carboxamide] | 30
2 | CC(C)[C@@H](NC(=O)c1cc(=O)[nH]c(-c2ncccn2)n1)c1ccc2c(c1)OC(F)(F)O2 [Example 592, N-[(1R)-1-(2,2-difluoro-1,3-benzodioxol-5-yl)-2-methylpropyl]-6-oxo-1,6-dihydro-2,2′-bipyrimidine-4-carboxamide] | 15
3 | COc1cc(C(F)(F)F)ccc1C(C)(C)NC(=O)c1cc(=O)[nH]c(C)n1 [Example 594, N-{1-[2-methoxy-4-(trifluoromethyl)phenyl]-1-methylethyl}-2-methyl-6-oxo-1,6-dihydropyrimidine-4-carboxamide] | 120
4 | Cc1nc(C(=O)NC(C)(C)c2ccc(C(F)(F)F)cc2C)cc(=O)[nH]1 [Example 595, 2-methyl-N-{1-methyl-1-[2-methyl-4-(trifluoromethyl)phenyl]ethyl}-6-oxo-1,6-dihydropyrimidine-4-carboxamide] | 37
5 | Cc1nc(C(=O)NC(C)(C)c2ccc(OC(F)(F)F)cc2F)cc(=O)[nH]1 [Example 597, N-{1-[2-fluoro-4-(trifluoromethoxy)phenyl]-1-methylethyl}-2-methyl-6-oxo-1,6-dihydropyrimidine-4-carboxamide] | 137
6 | CCc1nc(C(=O)N[C@H](C)c2ccc(S(F)(F)(F)(F)F)cc2)cc(=O)[nH]1 [Example 599, 2-ethyl-6-oxo-N-{(1R)-1-[4-(pentafluoro-λ^6-sulfanyl)phenyl]ethyl}-1,6-dihydropyrimidine-4-carboxamide] | 10
7 | Cc1nc(C(=O)NC(C)(C)c2ccc3c(c2)OC(F)(F)O3)cc(=O)[nH]1 [Example 604, N-[1-(2,2-difluoro-1,3-benzodioxol-5-yl)-1-methylethyl]-2-methyl-6-oxo-1,6-dihydropyrimidine-4-carboxamide] | 108
8 | Cc1nc(C(=O)N[C@H](C)c2ccc3c(c2)OC(F)(F)O3)cc(=O)[nH]1 [Example 606, N-[(1R)-1-(2,2-difluoro-1,3-benzodioxol-5-yl)ethyl]-2-methyl-6-oxo-1,6-dihydropyrimidine-4-carboxamide] | 237
9 | Cc1nc(C(=O)N[C@@H](c2ccc3c(c2)OC(F)(F)O3)C2CC2)cc(=O)[nH]1 [Example 609, N-[(R)-cyclopropyl(2,2-difluoro-1,3-benzodioxol-5-yl)methyl]-2-methyl-6-oxo-1,6-dihydropyrimidine-4-carboxamide] | 94
10 | Cc1nc(C(=O)NC2(c3ccc(OC(C)(C)C)cc3)CC2)cc(=O)[nH]1 [Example 626, N-[1-(4-tert-butoxyphenyl)cyclopropyl]-2-methyl-6-oxo-1,6-dihydropyrimidine-4-carboxamide] | 58
11 | Cc1nc(C(=O)NC2(c3ccc(CC(F)(F)F)cc3)CC2)cc(=O)[nH]1 [Example 627, 2-methyl-6-oxo-N-{1-[4-(2,2,2-trifluoroethyl)phenyl]cyclopropyl}-1,6-dihydropyrimidine-4-carboxamide] | 46
12 | Cc1nc(C(=O)NC2(c3ccc(OC(F)F)cc3)CC2)cc(=O)[nH]1 [Example 628, N-{1-[4-(difluoromethoxy)phenyl]cyclopropyl}-2-methyl-6-oxo-1,6-dihydropyrimidine-4-carboxamide] | 87

More lines, in order of falling Ki, values ahead:

Row | Ki [nM] | SMILES
13 | 303 | CC(C)(NC(=O)c1cc(=O)[nH]c(-c2ncccn2)n1)c1ccc2c(c1)OC(F)(F)O2 [Example 588, N-[1-(2,2-difluoro-1,3-benzodioxol-5-yl)-1-methylethyl]-6-oxo-1,6-dihydro-2,2′-bipyrimidine-4-carboxamide]
14 | 102 | Cc1nc(C(=O)NC(CO)(CO)c2ccc(C(F)(F)F)cc2)cc(=O)[nH]1 [Example 605, N-{2-hydroxy-1-(hydroxymethyl)-1-[4-(trifluoromethyl)phenyl]ethyl}-2-methyl-6-oxo-1,6-dihydropyrimidine-4-carboxamide]
15 | 71 | C[C@@H](NC(=O)c1cc(=O)[nH]c(-c2ncccn2)n1)c1ccc2c(c1)OC(F)(F)O2 [Example 587, N-[(1R)-1-(2,2-difluoro-1,3-benzodioxol-5-yl)ethyl]-6-oxo-1,6-dihydro-2,2′-bipyrimidine-4-carboxamide]
16 | 51 | Cc1nc(C(=O)NC2(c3ccc(C(F)(F)F)cc3F)CC2)cc(=O)[nH]1 [Example 625, N-{1-[2-fluoro-4-(trifluoromethyl)phenyl]cyclopropyl}-2-methyl-6-oxo-1,6-dihydropyrimidine-4-carboxamide]
17 | 48 | Cc1nc(C(=O)N[C@@H](c2ccc3c(c2)OC(F)(F)O3)C(C)C)cc(=O)[nH]1 [Example 607, N-[(1R)-1-(2,2-difluoro-1,3-benzodioxol-5-yl)-2-methylpropyl]-2-methyl-6-oxo-1,6-dihydropyrimidine-4-carboxamide]
18 | 34 | CC[C@@H](NC(=O)c1cc(=O)[nH]c(-c2ncccn2)n1)c1ccc2c(c1)OC(F)(F)O2 [Example 590, N-[(1R)-1-(2,2-difluoro-1,3-benzodioxol-5-yl)propyl]-6-oxo-1,6-dihydro-2,2′-bipyrimidine-4-carboxamide]
19 | 22 | CC(C)(C)[C@@H](NC(=O)c1cc(=O)[nH]c(-c2ncccn2)n1)c1ccc(OC(F)F)c(F)c1 [Example 589, N-{(1R)-1-[4-(difluoromethoxy)-3-fluorophenyl]-2,2-dimethylpropyl}-6-oxo-1,6-dihydro-2,2′-bipyrimidine-4-carboxamide]
20 | 21 | CCc1nc(C(=O)NC(C)(C)c2ccc(C(F)(F)F)cc2)cc(=O)[nH]1 [Example 600, 2-ethyl-N-{1-methyl-1-[4-(trifluoromethyl)phenyl]ethyl}-6-oxo-1,6-dihydropyrimidine-4-carboxamide]
21 | 19 | CC(C)(C)[C@@H](NC(=O)c1cc(=O)[nH]c(-c2ncccn2)n1)c1ccc2c(c1)OC(F)(F)O2 [Example 586, N-[(1R)-1-(2,2-difluoro-1,3-benzodioxol-5-yl)-2,2-dimethylpropyl]-6-oxo-1,6-dihydro-2,2′-bipyrimidine-4-carboxamide]
22 | 17 | Cc1nc(C(=O)N[C@@H](c2ccc(OC(F)F)c(F)c2)C(C)C)cc(=O)[nH]1 [Example 624, N-{(1R)-1-[4-(difluoromethoxy)-3-fluorophenyl]-2-methylpropyl}-2-methyl-6-oxo-1,6-dihydropyrimidine-4-carboxamide]
23 | 7.2 | CCc1nc(C(=O)N[C@@H](c2ccc(C(F)(F)F)c(F)c2)C2CC2)cc(=O)[nH]1 [Example 603, N-{(R)-cyclopropyl[3-fluoro-4-(trifluoromethyl)phenyl]methyl}-2-ethyl-6-oxo-1,6-dihydropyrimidine-4-carboxamide]
24 | 3.7 | CCc1nc(C(=O)N[C@H](C)c2ccc(OC(F)(F)F)c(F)c2)cc(=O)[nH]1 [Example 598, 2-ethyl-N-{(1R)-1-[3-fluoro-4-(trifluoromethoxy)phenyl]ethyl}-6-oxo-1,6-dihydropyrimidine-4-carboxamide]
25 | 3.2 | CCc1nc(C(=O)NC(C)(C)c2ccc(C(F)(F)F)cc2Cl)cc(=O)[nH]1 [Example 608, N-{1-[2-chloro-4-(trifluoromethyl)phenyl]-1-methylethyl}-2-ethyl-6-oxo-1,6-dihydropyrimidine-4-carboxamide]
